Data from patent US20230081720A1, “MCL-1 INHIBITOR ANTIBODY-DRUG CONJUGATES AND METHODS OF USE” (NOVARTIS AG, priority 2019, published 2023).
Where two headings read alike, the source gives them in different places.

Assays:
[1] = tested on: Nomo1 acute myeloid leukemia model; assay: Nomo1 xenograft tumor growth inhibition; type: in vivo; settings: female SCID mice, 50 MK 4ON/3OFF/4ON, PO, alone, day 9
Method: The in vivo therapeutic effect of a CD74-targeting ADC formulated in Phosphate-Buffered Saline (PBS) is determined in Nomo1 acute myeloid leukemia model after intravenous (IV) administration. The follow compounds were tested: anti-CD74_CysmAb Fc silent_L5-P1, anti-CD74_CysmAb Fc silent and IgG1-Linker-Payload Fc silent.
Nomo1 cells, obtained from DSMZ, were cultured in RPMI supplemented with 10% FBS. 0.1 ml containing 5×10^6 cells were subcutaneously inoculated into the right flank of female SCID mice, provided by Charles River. When tumors reached the appropriate volume, mice were randomized, 6 animals per group, using Easy stat software. IgG1-Linker-Payload Fc silent, anti-CD74_CysmAb Fc silent and anti-CD74_CysmAb Fc silent_L5-P1 (30 mg/kg) were injected once IV in PBS. Venetoclax (synthetized at the Servier Research Institute—IdRS) was formulated in PEG/EtOH/Phosal (Polyethylene glycol/ethanol/phosal, 30/10/60) and administered per os (PO) daily on weekdays (50 mpk, 4ON/3OFF/4ON). Mice body weight was monitored three times a week and tumor size measured using electronic calipers. […] The last day with at least half of animals of all groups still present in the study (d9), tumor growth inhibition was calculated using the formula: […]
With DTV (Delta Tumor Volume) at Dx, calculated being TV at Dx-TV at Randomization. […]

[2] = tested on: Karpas422 diffuse large B-cell lymphoma model; assay: Karpas422 xenograft tumor growth inhibition; type: in vivo, mice; settings: 50 MK 4ON/3OFF/4ON, PO, alone
Method: The in vivo therapeutic effect of a CD74-targeting ADC formulated in Phosphate-Buffered Saline (PBS) was determined in Karpas422 diffuse large B-cell lymphoma model after intravenous (IV) administration.
Karpas422 cells, obtained from ATCC, were cultured in RPMI supplemented with 20% FBS. Cells were resuspended in 100% Matrigel (BD Biosciences) and 0.1 ml containing 11×10^6 cells were subcutaneously inoculated into the right flank of female NSG mice, provided by Charles River. When tumors reached the appropriate volume, mice were randomized, 6 animals per group, using Easy stat software. IgG1-Linker-Payload Fc silent, anti-CD74_CysmAb Fc silent and anti-CD74_CysmAb Fc silent_L5-P1 (30 mg/kg) were injected once IV in PBS. Venetoclax (synthetized at the Servier Research Institute—IdRS) was formulated in PEG/EtOH/Phosal (Polyethylene glycol/ethanol/phosal, 30/10/60) and administered per os (PO) daily on weekdays (50 mpk, 4ON/3OFF/4ON). Mice body weight was monitored three times a week and tumor size measured using electronic calipers. Tumor volume was estimated by measuring the minimum and maximum tumor diameters using the formula: (minimum diameter)^2(maximum diameter)/2. The last day with at least half of control animals still present in the study (d23), tumor growth inhibition was calculated using the formula:
With DTV (Delta Tumor Volume) at Dx, calculated being TV at Dx-TV at Randomization. Response was evaluated as it follows: CR (Complete Response) if tumor size was <25 mm^3 for at least three measurements, PR (Partial Response) if tumor size was comprised between 25 mm^3 and 168.3 mm^3 (half of the starting size) for at least three measurements. Mice were sacrificed at the first measurement for which tumor volume exceeded 2000 mm^3 or at the first signs of animal health deterioration. […] SCID mice were maintained according to institutional guidelines.

[3] = tested on: Monomac1 acute myeloid leukemia model; assay: Monomac1 xenograft tumor growth inhibition; type: in vivo, mice; settings: 50MK 2ON/2OFF/5ON/2OFF/4ON, PO, alone
Method: The in vivo therapeutic effect of a CD74-targeting ADC formulated in Phosphate-Buffered Saline (PBS) was determined in Monomac1 acute myeloid leukemia model after intravenous (IV) administration. The following compounds were tested: CD74-targeting ADC is anti-CD74_CysmAb Fc silent_L5-P1, IgG1-Linker-Payload Fc silent, and anti-CD74_CysmAb Fc silent.
Monomac1 cells, obtained from DSMZ, were cultured in RPMI supplemented with 10% FBS. 0.1 ml containing 5×10^6 cells were subcutaneously inoculated into the right flank of female SCID mice, provided by Charles River. When tumors reached the appropriate volume, mice were randomized, 6 animals per group, using Easy stat software. IgG1-Linker-Payload Fc silent, anti-CD74_CysmAb Fc silent and anti-CD74_CysmAb Fc silent_L5-P1 (30 mg/kg) were injected once IV in PBS. Venetoclax (synthetized at the Servier Research Institute—IdRS) was formulated in PEG/EtOH/Phosal (Polyethylene glycol/ethanol/phosal, 30/10/60) and administered per os (PO) daily on weekdays (50 mpk, 2ON/2OFF/5ON/2OFF/4ON). Mice body weight was monitored three times a week and tumor size measured using electronic calipers. Tumor volume was estimated by measuring the minimum and maximum tumor diameters using the formula: (minimum diameter)^2(maximum diameter)/2. The last day with at least half of control animals still present in the study (d16), tumor growth inhibition was calculated using the formula:
With DTV (Delta Tumor Volume) at Dx, calculated being TV at Dx-TV at Randomization. […] Mice were sacrificed at the first measurement for which tumor volume exceeded 2000 mm^3 or at the first signs of animal health deterioration. […] SCID mice were maintained according to institutional guidelines.

[4] = tested on: EOL1 human acute myeloid (eosinophilic) leukemia xenograft model; assay: EOL1 xenograft, CD74-L5-P1 Fc silent with venetoclax (Example 14); type: in vivo, mice
Method: EOL1 luciferase transfected cells were cultured at 37° C. in an atmosphere of 5% CO2 in air in RPMI1640 (BioConcept Ltd. Amimed) supplemented with 10% FCS (BioConcept Ltd. Amimed, #2-01 F30-1), 2 mM L-glutamine (BioConcept Ltd. Amimed, #5-10K00-H) and 1 mM sodium pyruvate (BioConcept Ltd. Amimed, #5-60F00-H), 10 mM HEPES (Gibco #11560496). To establish EOL1 xenografts cells were harvested and re-suspended in HBSS (Gibco, #14175) before injecting 100 μL containing 5×10^6 cells subcutaneously in the flanks of female SCID beige mice (Charles River, Germany). Tumor growth was monitored regularly post cell inoculation and animals were randomized into treatment groups (n=6) with a mean tumor volume of about 130 mm^3. CD74-L5-P1 Fc silent, isotype IgG1 ADC Fc silent and CD74 Fc silent antibody were administered intravenously (iv) once at the start of treatment at the doses indicated in FIG. 12 either alone or in combination with venetoclax which was administered orally (po) daily (qd) at 50 mg/kg. Doses were adjusted to individual mouse body weights. The iv dose volume was 10 ml/kg and each ADC was dissolved in 0.9% (w/v) NaCl in water. Tumor volume data on day 10 post treatment were analyzed statistically using Kruskal-Wallis rank sum test (Indigo Software). When applicable, results are presented as mean±SEM. As a measure of efficacy the % T/C value is calculated on day 10 according to:
(§1) (Δtumor volume^treated/Δtumor volume^control)*100
(§2) Tumor regression was calculated according to:
(§3) −(Δtumor volume^treated/tumor volume^treated at start)*100
(§4) Where Δtumor volumes represent the mean tumor volume on the evaluation day minus the mean tumor volume at the start of the experiment.

Monomac1 cells = assay: Viability of Monomac1 AML cell line, CellTiterGlo 72 h; type: cell-based; settings: read-out: IC50 M (CTG 72 h) Monomac1
Method: Monomac1 cells were cultivated in RPMI supplemented with 10% heat inactivated fetal bovine serum, penicillin (100 IU/ml), streptomycin ([…]) and L-glutamine (2 mM). Cell lines were cultured at 37° C. in a humidified atmosphere containing 5% CO2. Cells were seeded in 96 microwell plates and exposed to the payloads or ADCs for 72 h (serially diluted; 9 concentrations each, triplicates). Effects of payloads or ADCs on cell viability were assessed after 3 days of incubation at 37° C./5% CO2 by quantification of cellular ATP levels using CellTiterGlo at 75 μL reagent/well. All the conditions were tested in triplicates. Luminescence was quantified on a multipurpose plate reader. IC50s were calculated using standard four-parametric curve fitting. […] Each experiment was performed at least twice, with results being reproducible.

EOL-1 = type: cell-based
Method: (§5) The CD74 MCL-1 antibody drug conjugates were tested against three endogenous cancer cell lines. MONO-MAC-1 (DSMZ No. ACC-252 cultured in RPMI-1640+10% FBS+1× non-essential amino acids+1 mM sodium pyruvate), NOMO-1 (DSMZ No. ACC-542 cultured in RPMI-1640+10% FBS) and EOL-1 (DSMZ No. ACC-386 cultured in RPMI-1640+10% FBS)
(§6) The ability of the CD74 MCL-1 antibody drug conjugates to inhibit cell proliferation in combination with BCL-2 inhibitor and survival was assessed using the Promega CellTiter-Glo® proliferation assay. Cell lines were cultured in media that is optimal for their growth at 5% CO2, 37° C. in a tissue culture incubator. Prior to seeding for the proliferation assay, the cells were split at least 2 days before the assay to ensure optimal growth density. On the day of seeding, suspension cells were harvested. Cell viability and cell density were determined using a cell counter (Vi-Cell XR Cell Viability Analyzer, Beckman Coulter). […] Cells were seeded at a density of 1,000 cells per well in 45 μL of standard growth media. Plates were incubated at 5% CO2, 37° C. overnight in a tissue culture incubator. The next day, free MCL-1 payload (P1), targeting MCL-1 ADCs and non-targeting isotype ADCs were prepared at 10× in standard growth media. The prepared drug treatments were then added to the cells resulting in final concentrations of 0.0005-300 nM and a final volume of 50 μL per well. Each drug concentration was tested in quadruplets. Three conditions were evaluated for each compound. The compounds were evaluated as single agents and in combination with Venetoclax and in combination with Compound A1. The Venetoclax and Compound A1 were dosed at either 5 nM or 50 nM final concentration. Plates were incubated at 5% CO2, 37° C. for 5 days in a tissue culture incubator, after which cell viability was assessed through the addition of 25 μL of CellTiter Glo® (Promega, cat#G7573), a reagent which lyses cells and measures total adenosine triphosphate (ATP) content. Plates were incubated at room temperature for 10 minutes to stabilize luminescent signals prior to reading using a luminescence reader (EnVision Multilabel Plate Reader, PerkinElmer). To evaluate the effect of the drug treatments, luminescent counts from wells containing untreated cells (100% viability) were used to normalize treated samples. A variable slope model was applied to fit a nonlinear regression curve to the data in GraphPad PRISM version 7.02 software. IC50 and Amax values were extrapolated from the resultant curves.

MONO-MAC-1 = type: cell-based
Method: as §5, §6

NOMO-1 = type: cell-based
Method: as §5, §6

[5] = tested on: EOL1 human acute myeloid (eosinophilic) leukemia xenograft model; assay: EOL1 xenograft, CD74-ADCs Fc silent with different linker payloads (Example 15); type: in vivo, mice; settings: 2.5 mg/kg i.v. once + Venetoclax 50 mg/kg p.o. qd
Method: To optimize the linker payload, efficacy of 6 CD74-ADCs with different linker payloads (L5-P1, L30-P1, L31-P1, L32-P1, L33-P1 and L34-P1) was evaluated in the EOL1 model in vivo.
EOL1 luciferase transfected cells were cultured at 37° C. in an atmosphere of 5% CO2 in air in RPM11640 (BioConcept Ltd. Amimed) supplemented with 10% FCS (BioConcept Ltd. Amimed, #2-01 F30-1), 2 mM L-glutamine (BioConcept Ltd. Amimed, #5-10K00-H) and 1 mM sodium pyruvate (BioConcept Ltd. Amimed, #5-60F00-H), 10 mM HEPES (Gibco #11560496). To establish EOL1 xenografts cells were harvested and re-suspended in HBSS (Gibco, #14175) before injecting 100 μL containing 5×10^6 cells subcutaneously in the flanks of female SCID beige mice (Charles River, Germany). Tumor growth was monitored regularly post cell inoculation and animals were randomized into treatment groups (n=6) with a mean tumor volume of about 130 mm^3. The ADCs were administered intravenously (iv) once at the start of treatment at 2.5 mg/kg or at 3.3 mg/kg in combination with venetoclax which was administered orally (po) daily (qd) at 50 mg/kg. Doses were adjusted to individual mouse body weights. The iv dose volume was 10 ml/kg and each ADC was dissolved in 0.9% (w/v) NaCl in water. Tumor volume data on day 10 post treatment were analyzed statistically using one way ANOVA post hoc Tukey's multiple comparisons test (Indigo Software). Results are presented as mean±SEM. As a measure of efficacy the % T/C value is calculated on day 10 according to:
as §1, §2, §3, §4

CC1(C)CCC(CN2CCN(c3ccc(C(=O)NS(=O)(=O)c4ccc(NCC5CCOCC5)c([N+](=O)[O-])c4)c(Oc4cnc5[nH]ccc5c4)c3)CC2)=C(c2ccc(Cl)cc2)C1 [Venetoclax]
% TGI (d9) [1]: 26.2%
% CR [2]: 0%
% PR [2]: 0%
% TGI (d23) ([2]; female NSG mice, day 23): 31.1%
% CR [3]: 0%
% PR [3]: 0%
% TGI (d16) ([3]; female SCID mice, day 16): 4.5%
T/C (%) ([4]; 50 mg/kg p.o. qd + vehicle for ADC, day 10): 90%
ΔTumor volume (mm^3) ([4]; 50 mg/kg p.o. qd + vehicle for ADC, day 10, mean): 977 mm^3
antitumor effect (in words) ([4]; 50 mg/kg po qd alone): Limited efficacy

COc1ccccc1-c1nccc(COc2ccc3cc2C[C@H](C(=O)O)Oc2ncnc4sc(-c5ccc(F)cc5)c(c24)-c2c(C)c(Cl)c(c(Cl)c2C)O[C@H](CN2CCN(C)CC2)CO3)n1 [P15, (11R,20R)-23,26-dichloro-3-(4-fluorophenyl)-14-[[2-(2-methoxyphenyl)pyrimidin-4-yl]methoxy]-24,25-dimethyl-20-[(4-methylpiperazin-1-yl)methyl]-10,18,21-trioxa-4-thia-6,8-diazapentacyclo[20.2.2.12,5.113,17.09,28]octacosa-1(25),2,5(28),6,8,13,15,17(27),22(26),23-decaene-11-carboxylic acid]
IC50 (Monomac1 cells; Mono-Mac-1, 72 h): 0.386 nM

COc1ccccc1-c1nccc(COc2ccccc2C[C@@H](Oc2ncnc3sc(-c4ccc(F)cc4)c(-c4ccc(OCCN5CC[N+](C)(Cc6ccc(NC(=O)[C@H](CCCNC(N)=O)NC(=O)[C@@H](NC(=O)CCOCCN7C(=O)CC(C)C7=O)C(C)C)cc6)CC5)c(Cl)c4C)c23)C(=O)O)n1 (stereo partly drawn) [CD74-L9-P1]
IC50 (Monomac1 cells; 72 h): 0.482 nM

COCCOCCOCCOCCOCCOCCOCCOCCOCCOCCOCCOCCOCCOCCOCCOCCOCCOCCOCCOCCOCCOCCOCCOCCn1cc(COCc2cc(NC(=O)[C@H](CCCNC(N)=O)NC(=O)[C@@H](NC(=O)CCOCCN3C(=O)CC(C)C3=O)C(C)C)ccc2C[N+]2(C)CCN(CCOc3ccc(-c4c(-c5ccc(F)cc5)sc5ncnc(O[C@H](Cc6ccccc6OCc6ccnc(-c7ccccc7OC)n6)C(=O)O)c45)c(C)c3Cl)CC2)nn1 (stereo partly drawn) [CD74-L5-P1]
IC50 (EOL-1; + 5 nM Compound A1, 5 days): 0.136 nM
IC50 (EOL-1; + 5 nM Venetoclax, 5 days): 0.164 nM
Amax (Span) EOL-1 (EOL-1; single agent, 5 days): 91.25
IC50 (EOL-1; single agent, 5 days): 1.42 nM
IC50 (MONO-MAC-1; + 5 nM Compound A1, 5 days): 0.636 nM
IC50 (MONO-MAC-1; + 5 nM Venetoclax, 5 days): 1.31 nM
IC50 (MONO-MAC-1; + 50 nM Compound A1, 5 days): 0.156 nM
IC50 (MONO-MAC-1; + 50 nM Venetoclax, 5 days): 0.409 nM
Amax (Span) MONO-MAC-1 (MONO-MAC-1; single agent, 5 days): 84.9
IC50 (MONO-MAC-1; single agent, 5 days): 7.95 nM
IC50 (NOMO-1; + 5 nM Compound A1, 5 days): 0.457 nM
IC50 (NOMO-1; + 5 nM Venetoclax, 5 days): 1.03 nM
IC50 (NOMO-1; + 50 nM Compound A1, 5 days): 0.138 nM
IC50 (NOMO-1; + 50 nM Venetoclax, 5 days): 0.278 nM
Amax (Span) NOMO-1 (NOMO-1; single agent, 5 days): 74.45
IC50 (NOMO-1; single agent, 5 days): 3.7 nM
T/C (%) ([5]; day 10): 70%
ΔTumor volume (mm^3) ([5]; female SCID beige mice, day 10, mean): 702 mm^3
